The values that follow come from US9062072B2, “Inhibitors of HIF and angiogenesis” (Emory University, priority 2010, dated 2015).

Like-named read-outs stand apart in the source and are kept apart here. Some results are limits rather than exact numbers.

In this assay the test system is HIF-1-mediated transcription. Description: HIF-1-mediated transcription under hypoxia, LN229-HRE-Lux luciferase reporter assay. The assay is classed as cell-based, human. The settings on record: for IC50: LN229-HRE-Lux cells, hypoxia (1% O2). The protocol: The synthesized analogues were evaluated for their potential to inhibit HIF-1-mediated transcription under hypoxia (1% O2) using a human glioma cell line LN229-HRE-Lux, which stably expresses a hypoxia-responsive luciferase reporter gene (Table 1-9). […] The compounds were tested in single (n=1) or multiple (n>1) independent experiments each carried out in quadruplicate.
LN229-HRE-luciferase human glioblastoma cells were used to perform the assay. […] 48-well plates were seeded with 3.10^4 cells per well and incubated under normoxic conditions for 24 h. Cells were then pre-treated with different concentrations of KCN-1 or its analogues for 1 h and then transferred to hypoxic conditions. After 24 h, media was aspirated, cells were lysed and reporter activity was measured in the lysate using Luciferase Assay System (Promega, Madison, Wis.) with 20/20^n Luminometer (Promega).
(In general: In a reporter assay the amount or activity of a reporter protein is the signal.)

Setting [1] is: Homo sapiens, 24 h, Table 7, 24 h, results from single runs, read-out: IC50.
Where [2] appears, read: Homo sapiens, 24 h, 24 h, read-out: IC50.
Setting [3] is: Homo sapiens, 24 h, Table 8, 24 h, results from single runs, read-out: IC50.
The mark [4] stands for this setting: Homo sapiens, 24 h, Table 9, results from single runs.

Consider `COc1ccc(S(=O)(=O)N(Cc2ccc3c(n2)C=CC(C)(C)O3)c2ccccc2)cc1OC` [Compound 26a, N-((2,2-dimethyl-2H-pyrano[3,2-b]pyridin-6-yl)methyl)-3,4-dimethoxy-N-phenylbenzenesulfonamide], for which the IC50 reads like this: under setting [1], 1.3 µM; (Homo sapiens, unit inferred, read-out: IC50) 1.3 µM. Take `CCCCN(Cc1ccc2c(n1)C=CC(C)(C)O2)S(=O)(=O)c1ccc(OC)c(OC)c1` [Compound 26b, N-Butyl-N-((2,2-dimethyl-2H-pyrano[3,2-b]pyridin-6-yl)methyl)-3,4-dimethoxybenzenesulfonamide]: the half-maximal inhibitory concentration (IC50) under setting [1] amounted to 0.9 µM. `COc1ccc(N(Cc2ccc3c(n2)C=CC(C)(C)O3)S(=O)(=O)c2ccc(OC)c(OC)c2)cc1OC` [Compound 26c, N-(3,4-Dimethoxyphenyl)-N-((2,2-dimethyl-2H-pyrano[3,2-b]pyridin-6-yl)methyl)-3,4-dimethoxybenzenesulfonamide]: under setting [1], the 50% inhibitory concentration (IC50) was over 25 µM. Same read-out and setting: with `COc1ccc(S(=O)(=O)N(Cc2ccc3c(n2)C=CC(C)(C)O3)C2CCCC2)cc1OC` [Compound 26d, N-Cyclopentyl-N-((2,2-dimethyl-2H-pyrano[3,2-b]pyridin-6-yl)methyl)-3,4-dimethoxybenzenesulfonamide] the figure was 0.6 µM; with `COc1ccc(S(=O)(=O)N(Cc2ccc3c(n2)C=CC(C)(C)O3)C2CCCCC2)cc1OC` [Compound 26e, N-Cyclohexyl-N-((2,2-dimethyl-2H-pyrano[3,2-b]pyridin-6-yl)methyl)-3,4-dimethoxybenzenesulfonamide], 0.8 µM; with `COc1ccc(S(=O)(=O)N(Cc2ccc3c(n2)C=CC(C)(C)O3)C2CCCCCC2)cc1OC` [Compound 26g, N-Cycloheptyl-N-((2,2-dimethyl-2H-pyrano[3,2-b]pyridin-6-yl)methyl)-3,4-dimethoxybenzenesulfonamide], 6.6 µM. For the compound `COc1ccc(S(=O)(=O)N(Cc2ccc3c(n2)C=CC(C)(C)O3)C2CCCCCCC2)cc1OC` [Compound 26h, N-Cyclooctyl-N-((2,2-dimethyl-2H-pyrano[3,2-b]pyridin-6-yl)methyl)-3,4-dimethoxybenzenesulfonamide], the 50% inhibitory concentration (IC50) under setting [1] was 0.7 µM. `COc1ccc(S(=O)(=O)N(Cc2ccc3c(n2)C=CC(C)(C)O3)C2CCC2)cc1OC` [Compound 26i, N-Cyclobutyl-N-((2,2-dimethyl-2H-pyrano[3,2-b]pyridin-6-yl)methyl)-3,4-dimethoxybenzenesulfonamide]: the IC50 amounted to 0.25 µM under setting [1]; 0.25 µM under setting [2]; 0.4 µM (24 h, read-out: IC50). Further, for the setting “IC50 compared with KCN-1, LN229-HRE-Lux reporter assay”, the “fold higher potency than KCN-1” value is reported as about 3 fold. For `COc1ccc(S(=O)(=O)N(Cc2ccc3c(n2)C=CC(C)(C)O3)c2ccc(F)cc2)cc1OC` [Compound 26j, N-((2,2-dimethyl-2H-pyrano[3,2-b]pyridin-6-yl)methyl)-N-(4-fluorophenyl)-3,4-dimethoxybenzenesulfonamide], under setting [1], the IC50 was 5.7 µM.

Turning to `CC1(C)C=Cc2nc(CN(c3ccccc3)S(=O)(=O)C3CCCCC3)ccc2O1` [Compound 26k, N-((2,2-Dimethyl-2H-pyrano[3,2-b]pyridin-6-yl)methyl)-N-phenylcyclohexanesulfonamide], 0.4 µM corresponded to half-maximal inhibition (Homo sapiens, 24 h, Table 8, results from single runs) (IC50).

Take `CC(C)S(=O)(=O)N(Cc1ccc2c(n1)C=CC(C)(C)O2)c1ccccc1` [Compound 26l, N-((2,2-Dimethyl-2H-pyrano[3,2-b]pyridin-6-yl)methyl)-N-phenylpropane-2-sulfonamide]: under setting [3], the IC50 worked out at 13.4 µM. As to `CC1(C)C=Cc2nc(CN(c3ccccc3)S(=O)(=O)C3CC3)ccc2O1` [Compound 26m, N-((2,2-Dimethyl-2H-pyrano[3,2-b]pyridin-6-yl)methyl)-N-phenylcyclopropanesulfonamide], under setting [3], the IC50 was over 25 µM. Regarding `CCCCS(=O)(=O)N(Cc1ccc2c(n1)C=CC(C)(C)O2)c1ccccc1` [Compound 26n, N-((2,2-Dimethyl-2H-pyrano[3,2-b]pyridin-6-yl)methyl)-N-phenylbutane-1-sulfonamide], under setting [3], the IC50 came out at 5 µM. In the case of `CCCS(=O)(=O)N(Cc1ccc2c(n1)C=CC(C)(C)O2)c1ccccc1` [Compound 26o, N-((2,2-Dimethyl-2H-pyrano[3,2-b]pyridin-6-yl)methyl)-N-phenylpropane-1-sulfonamide], the IC50 under setting [3] worked out at 6.4 µM. On the same count and under the same terms, with `CC(C)CS(=O)(=O)N(Cc1ccc2c(n1)C=CC(C)(C)O2)c1ccccc1` [Compound 26p, N-((2,2-Dimethyl-2H-pyrano[3,2-b]pyridin-6-yl)methyl)-2-methyl-N-phenylpropane-1-sulfonamide] the figure was 0.9 µM. `CC1(C)C=Cc2nc(CN(c3ccccc3)S(=O)(=O)c3ccc(-c4ccccc4)cc3)ccc2O1` [Compound 26q, N-((2,2-Dimethyl-2H-pyrano[3,2-b]pyridin-6-yl)methyl)-N-phenylbiphenyl-4-sulfonamide]: the half-maximal inhibitory concentration (IC50) under setting [3] amounted to 3.4 µM.

On to `CC1(C)C=Cc2nc(CN(c3ccccc3)S(=O)(=O)c3cccc4cccnc34)ccc2O1` [Compound 26s, N-((2,2-Dimethyl-2H-pyrano[3,2-b]pyridin-6-yl)methyl)-N-phenylquinoline-8-sulfonamide], for which the IC50 by setting is: under setting [3], 0.9 µM; under setting [2], 0.9 µM. As for `CC1(C)C=Cc2nc(CN(c3ccccc3)S(=O)(=O)c3ccc4c(c3)OCCO4)ccc2O1` [Compound 26t, N-((2,2-dimethyl-2H-pyrano[3,2-b]pyridin-6-yl)methyl)-N-phenyl-2,3-dihydrobenzo[b][1,4]dioxine-6-sulfonamide], the concentration for half-maximal inhibition (IC50) under setting [3] came to 0.9 µM.

Take `COc1ccc(S(=O)(=O)N(Cc2cc3c(cn2)OC(C)(C)C=C3)c2ccccc2)cc1` [Compound 36a, N-((2,2-Dimethyl-2H-pyrano[2,3-c]pyridin-6-yl)methyl)-4-methoxy-N-phenylbenzenesulfonamide]: the 50% inhibitory concentration (IC50) is, setting by setting: (Homo sapiens, 24 h, Table 9, 24 h, results from single runs, read-out: IC50) 1.4 µM; under setting [2], 1.42 µM. As to `CC1(C)C=Cc2cc(CN(c3ccccc3)S(=O)(=O)c3ccc([N+](=O)[O-])cc3)ncc2O1` [Compound 36b, N-((2,2-Dimethyl-2H-pyrano[2,3-c]pyridin-6-yl)methyl)-4-nitro-N-phenylbenzenesulfonamide], the IC50 came to 1.8 µM under setting [4] and 1.8 µM (Homo sapiens, 24 h).

Take `CC(C)c1ccc(S(=O)(=O)N(Cc2cc3c(cn2)OC(C)(C)C=C3)C2CCCCC2)cc1` [Compound 36c, N-Cyclohexyl-N-((2,2-dimethyl-2H-pyrano[2,3-c]pyridin-6-yl)methyl)-4-isopropylbenzenesulfonamide]: the IC50 reads like this: under setting [4], 1.1 µM; (Homo sapiens, 24 h) 1.08 µM.

As to `COc1ccc(S(=O)(=O)N(Cc2cc3c(cn2)OC(C)(C)C=C3)C2CCCCC2)cc1OC` [Compound 36d, N-Cyclohexyl-N-((2,2-dimethyl-2H-pyrano[2,3-c]pyridin-6-yl)methyl)-3,4-dimethoxybenzenesulfonamide], under setting [4], the IC50 was found to be 5.8 µM. Regarding `COc1ccc(S(=O)(=O)N(Cc2ccc3c(c2)C=CC(C)(C)O3)c2ccccc2)cc1OC` [KCN-1, N-((2,2-dimethyl-2H-chromen-6-yl)methyl)-3,4-dimethoxy-N-phenylbenzenesulfonamide, reference compound], the IC50 (Homo sapiens, n=26, read-out: IC50) was 0.7 ± 0.4 µM.

By IC50 is commonly meant the point on the concentration scale where inhibition reaches its midpoint.
